Measurements: patent US20230172920A1, “DOSING REGIMEN FOR TREATING A DISEASE MODULATED BY CSF-1R” (Novartis AG, priority 2020, published 2023)
Where two headings read alike, the source gives them in different places.

Columns and labels:
[1] = Blood and spinal cord exposure, 8-week SOD1G93A efficacy study; format: in vivo, SOD1G93A mouse; conditions: for Kp at 3 h / concentration at 3 h: mouse; for Kp at 3 h: spinal cord relative to blood; for concentration at 3 h: blood, read-out: Blood conc.
Method: BLZ945 was dosed over an 8-week period in a mouse model of ALS (in house data). BLZ945 was tested for efficacy in preventing or delaying disease progression in the SOD1G93A ALS mouse (RD-2019-00092). […] Normal body weight gain is also impaired in this model. These physiological impairments are considered as mechanistic readouts given that they best recapitulate the clinical disease phenotype (Turner et al 2013). Animals were dosed from 8 to 16 weeks of age with daily (q.d) doses of BLZ945 at either 65 mg/kg, 170 mg/kg, or 170 mg/kg delivered intermittently with a 7 day ON/7 day OFF regimen.
Microglia were depleted by greater than 90% with the high dose (170 mg/kg) of BLZ945 and by about 50% with the low dose (65 mg/kg). […] Blood and CNS exposure to BLZ945 were measured at 3 hours post-dose on the day of necropsy (Table 8). BLZ945 spinal cord exposure ratios (relative to blood) were consistent across dose groups at approximately 0.4 (Table 9).

[2] = tested on: tumor associated macrophages (TAM) and Tregs; assay: Tumor infiltrating macrophages and Tregs by flow cytometry (MC38 model); format: in vivo, mouse; conditions: BLZ945 4 days on/3 days off, single agent and with anti-PD-1
Method: In order to access the dynamics of the tumor associated immune cells a repeat study using only the 4 days on/3 days off schedule as a single agent and in combination with anti-PD-1 was performed.
FIG. 5 Analysis of tumor infiltrating macrophages (FIG. 5A) and Tregs (FIG. 5B) upon treatment with BLZ945 in a 4 days on/3 days off schedule on day 10 (A) and day 14 (B) and in combination with anti-PD-1 by flow cytometry. Statistical significance was calculated using a two-tailed, unpaired, non-parametric Mann-Whitney Test was performed to compare treatment to control groups.

[3] = AST/ALT elevation across single agent dose groups (clinical data, CTCAE); format: in vivo, human
Method: A comparison of AST and ALT elevation across single agent dose groups for the compound of Formula (I) was performed for the once per week (Q1WV) dosing regimen and the 4 days on/10 days off dosing regimen over a range of dosages. FIGS. 6 and 7 show the AST and ALT elevations, respectively. The Common Terminology Criteria for Adverse Events (CTCAE) was used to evaluate AST and ALT levels.

[4] = Phase I/II first-in-human study CBLZ945X2101: adverse events; format: in vivo
Text: The purpose of this first-in-human (FIH) study of BLZ945 given as a single agent or in combination with spartalizumab is to characterize the safety, tolerability, pharmacokinetics (PK), pharmacodynamics, and anti-tumor activity of BLZ945, administered orally, as a single agent or in combination with spartalizumab, administered intravenously (i.v.) in adult patients with advanced solid tumors.
This study is a FIH, open-label, multi-center, phase I/II, study which consists of a phase I dose escalation part of BLZ945 as single agent (including a separate Japanese BLZ945 single agent dose escalation arm) and in combination with spartalizumab. Alternative dosing regimens of BLZ945 may be evaluated. BLZ945 is being administered orally, and spartalizumab is being administered i.v. every four weeks until patient experiences unacceptable toxicity, progressive disease and/or treatment is discontinued at the discretion of the Investigator or the patient.
BLZ945 dosing is being evaluated on the following schedules, 7 days on/7 days off (i.e., administer BLZ945 every day for 7 days and suspend for 7 days), once weekly (Q1W), and 4 days on/10 days off (i.e., administer BLZ945 every day for 4 days and suspend for 10 days). For each of these schedules, once per day (OD) or twice per day (BID) dosing may be evaluated. For once daily administration, patients should take their dose at approximately the same time in the morning. For the twice a day dosing, the first dose should be taken in the morning and the second dose should be taken approximately 10 to 12 hours after the morning dose.
All patients treated with either BLZ945 single agent or in combination with spartalizumab will begin study treatment on Cycle 1 Day 1. Each cycle will consist of 28 days. […]
As mentioned above, nausea, vomiting have been commonly observed to occur with single-agent administration of BLZ945 in the first-in-human trial (CBLZ945X2101). […] An additional cohort to evaluate 7 days on may also be evaluated.

[5] = clinical; set-up: species or system human; conditions: in vivo
Method: On days that PK samples are obtained, the patient should take BLZ945 during the clinic visit after the pre-dose PK samples and prior to post-dose PK samples, when instructed by the study staff. Patients should take BLZ945 on an empty stomach (i.e. fast from food and drink, except water) at least 1 hour before or 2 hours after a meal. Each dose should be taken with a glass of water. Patients should be instructed to swallow whole capsules and not to chew or open them.
The preliminary pharmacokinetics (PK) of single dose and multiple doses of oral BLZ945 when administered alone and in combination with spartalizumab has been assessed in the ongoing study CBLZ945X2101.

CNC(=O)c1cc(Oc2ccc3nc(N[C@@H]4CCCC[C@H]4O)sc3c2)ccn1 [BLZ945, 4-((2-(((1R,2R)-2-hydroxycyclohexyl)amino)benzo[d]thiazol-6-yl)oxy)-N-methylpicolinamide]
Spinal Cord Conc. ([1]; 65 mg/kg q.d., 3 h post-dose): 11799.8 pmol/g
Spinal Cord Conc. ([1]; 170 mg/kg CONT, 3 h post-dose): 28358.8 pmol/g
Spinal Cord Conc. ([1]; 170 mg/kg INT (7 day ON/7 day OFF), 3 h post-dose): 18573.5 pmol/g
Kp at 3 h ([1]; SOD1G93A (transgenic ALS model), 170 mg/kg CONT, 3 h post-dose, read-out: Spinal Cord/Blood ratio): 0.42
concentration at 3 h ([1]; SOD1G93A, 65 mg/kg, 65 mg/kg q.d., 3 h post-dose): 29.3 µM
concentration at 3 h ([1]; SOD1G93A, 170 mg/kg, 170 mg/kg CONT, 3 h post-dose): 66.3 µM
concentration at 3 h ([1]; SOD1G93A, 170 mg/kg, 170 mg/kg INT (7 day ON/7 day OFF), 3 h post-dose): 50.4 µM
Kp at 3 h ([1]; SOD1G93A, 65 mg/kg q.d., 3 h post-dose, read-out: Spinal Cord/Blood ratio): 0.42
Kp at 3 h ([1]; SOD1G93A, 170 mg/kg INT (7 day ON/7 day OFF), 3 h post-dose, read-out: Spinal Cord/Blood ratio): 0.36
Kp at 3 h ([1]; SOD1G93A, across dose groups, 3 hours post-dose, read-out: spinal cord exposure ratios (relative to blood)): ~0.4
TAM in tumor ([2]; after 10 and 14 days of treatment): significant decrease
Tregs in tumor ([2]; day 10 after treatment start): transient decrease
AST and ALT elevations ([3]; 4 days on/10 days off compared with Q1W dosing regimen, single agent): better controlled
ALT/AST levels ([3]; 4 days on/10 days off schedule): recover to baseline before next dose
AST and ALT levels ([3]; Q1W dose, even at lowest dose of 300 mg): spikes above the G2 level
most frequently reported AEs (>10%) suspected to be related to treatment ([4]; in vivo): aspartate aminotransferase (AST) increased, nausea, vomiting, alanine aminotransferase (ALT) increased, fatigue, amylase increased, blood creatine phosphokinase increased and decreased appetite
serum enzyme elevation ([4]; in vivo): Asymptomatic serum enzyme elevation including AST, ALT, CK and alkaline phosphatase elevations
suspected SAEs (grade and kind) ([4]; single agent arm, combination arm): Grade 3 AST increased, Grade 3 asthenia and Grade 4 sudden death
mean accumulation index (Racc) ([5]; human): 1.07-1.24
AUC(0-t) ([5]; human, po, 150 mg): 102 µg·h/mL
Cmax ([5]; human, po, 150 mg): 6950 ng/mL
AUC(0-t) ([5]; human, po, 300 mg): 203 µg·h/mL
Cmax ([5]; human, po, 300 mg): 13900 ng/mL
AUC(0-t) ([5]; human, po, 600 mg): 378 µg·h/mL
Cmax ([5]; human, po, 600 mg): 24500 ng/mL
AUC(0-t) ([5]; human, po, 800 mg): 413 µg·h/mL
Cmax ([5]; human, po, 800 mg): 22700 ng/mL
AUC(0-t) ([5]; human, po, 1200 mg): 599 µg·h/mL
Cmax ([5]; human, po, 1200 mg): 32700 ng/mL
absorption ([5]; po): rapid absorption
